Molecules are shown by their SMILES.

The target in this experiment is Activated CDC42 kinase 1 (Homo sapiens, UniProt Q07912).
Chain of Activated CDC42 kinase 1 (Q07912 whole entry): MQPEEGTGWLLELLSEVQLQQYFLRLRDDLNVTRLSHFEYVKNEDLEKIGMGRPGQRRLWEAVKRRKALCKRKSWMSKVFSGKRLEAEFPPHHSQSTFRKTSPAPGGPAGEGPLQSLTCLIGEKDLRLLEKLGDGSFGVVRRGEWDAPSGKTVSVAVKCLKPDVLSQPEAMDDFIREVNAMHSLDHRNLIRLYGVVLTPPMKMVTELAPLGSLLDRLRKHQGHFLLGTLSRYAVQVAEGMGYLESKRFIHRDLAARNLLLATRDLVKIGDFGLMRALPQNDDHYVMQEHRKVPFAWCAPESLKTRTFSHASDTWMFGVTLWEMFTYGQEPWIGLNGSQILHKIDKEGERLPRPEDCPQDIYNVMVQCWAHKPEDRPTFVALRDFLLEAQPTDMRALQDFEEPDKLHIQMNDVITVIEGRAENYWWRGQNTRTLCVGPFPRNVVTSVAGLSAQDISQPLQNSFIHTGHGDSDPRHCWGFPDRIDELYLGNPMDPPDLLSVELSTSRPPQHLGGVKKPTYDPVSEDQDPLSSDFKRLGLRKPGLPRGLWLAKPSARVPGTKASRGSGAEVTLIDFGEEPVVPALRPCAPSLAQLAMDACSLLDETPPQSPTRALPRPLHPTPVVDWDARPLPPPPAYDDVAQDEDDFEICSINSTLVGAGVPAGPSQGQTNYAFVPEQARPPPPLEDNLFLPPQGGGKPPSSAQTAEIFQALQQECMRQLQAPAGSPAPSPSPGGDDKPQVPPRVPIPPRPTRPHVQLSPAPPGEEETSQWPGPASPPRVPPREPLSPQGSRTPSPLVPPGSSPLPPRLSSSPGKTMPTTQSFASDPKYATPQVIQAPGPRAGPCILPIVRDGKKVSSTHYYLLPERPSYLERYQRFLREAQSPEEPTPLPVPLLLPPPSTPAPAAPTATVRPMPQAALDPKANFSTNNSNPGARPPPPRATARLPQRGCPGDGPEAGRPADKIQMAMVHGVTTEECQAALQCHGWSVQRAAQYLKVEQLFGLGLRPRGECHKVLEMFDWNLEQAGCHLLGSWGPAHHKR

As to `COc1cc(N2CCN(C)CC2)ccc1Nc1ncc(Cl)c(Nc2ccc(NS(C)(=O)=O)cc2)n1` [US20240010634, Example 33], the IC50 (in general, the concentration that gives 50% inhibition) came out at 26 nM.
